{"source": "paper PMC4281101", "about": "(Journal of Medicinal Chemistry, 2014)", "key": {"[1]": {"experiment": "Pharmacokinetics analysis of 3r in CD-1 mice", "type": "in vivo", "conditions": "5 mg/kg"}, "[2]": {"experiment": "Solubility in simulated gastric/intestinal fluids", "type": "physicochemical", "conditions": "simulated intestinal fluid, pH 6.8"}, "[3]": {"test_system": "KM mice", "experiment": "Acute toxicity in mice", "type": "in vivo"}, "[4]": {"test_system": "G-6-Pase mRNA expression in HepG2 cell", "experiment": "Cell-based assay for inhibition on the mRNA expression of G-6-Pase"}, "[5]": {"test_system": "PEPCK mRNA expression in HepG2 cell", "experiment": "Cell-based assay for inhibition on the mRNA expression of PEPCK"}, "[6]": {"experiment": "Stability in the mouse liver microsome", "conditions": "for microsomal CLint at 0.5 μM: CD-1, mouse, liver microsomes, pH 7.4; for Clapp / Clh / Eh / k: CD-1 mouse liver microsomes"}, "[7]": {"experiment": "Pharmacokinetics analysis of 8r in SD rats", "type": "in vivo", "conditions": "5 mg/kg; for T1/2: SD rats"}, "[8]": {"molecular_target": "T1, PDE9A2 (181–506) (Homo sapiens, UniProt O76083)", "T1 sequence (O76083 241-566)": "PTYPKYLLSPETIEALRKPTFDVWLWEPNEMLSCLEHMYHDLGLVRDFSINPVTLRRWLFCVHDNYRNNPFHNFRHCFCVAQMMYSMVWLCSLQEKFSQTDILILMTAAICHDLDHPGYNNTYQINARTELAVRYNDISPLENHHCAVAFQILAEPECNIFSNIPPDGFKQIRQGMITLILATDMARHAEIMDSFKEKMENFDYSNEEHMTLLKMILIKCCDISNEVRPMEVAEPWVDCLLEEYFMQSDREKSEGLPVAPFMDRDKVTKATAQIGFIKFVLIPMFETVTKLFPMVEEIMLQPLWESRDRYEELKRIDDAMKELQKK", "experiment": "PDE enzymatic assay, PDE9A2 catalytic domain", "type": "biochemical"}, "[9]": {"molecular_target": "T1, PDE9A2 (181–506)", "conditions": "read-out: IC50 ± SD, PDE9A2 (181–506); 28s from previous report; cited from earlier work"}, "[10]": {"experiment": "Pharmacokinetics of 28s", "type": "in vivo", "conditions": "blood, po, 5 mg/kg"}, "[11]": {"conditions": "HepG2 cell-based assay, general statement"}, "[12]": {"conditions": "HepG2 cell, cAMP/dexamethasone stimulation, 300 nM, in words"}}, "data": [{"compound": "COc1ccc(NC(=O)[C@@H](C)Nc2nc3c(cnn3C3CCCC3)c(=O)[nH]2)cc1", "note": "[Compound 3r, (R)-2-((1-Cyclopentyl-4-hydroxy-1H-pyrazolo[3,4-d]pyrimidin-6-yl)amino)-N-(4-methoxyphenyl)propanamide]", "values": [{"measurement": "T1/2", "setting": "[1]; iv, CD-1 mice", "result": "5.34 ± 1.43", "unit": "h"}, {"measurement": "MRT inf", "setting": "[1]; male, CD-1, mouse, blood, iv", "result": "1.08 ± 0.08", "unit": "h"}, {"measurement": "Vd", "setting": "[1]; male, CD-1, mouse, blood, iv", "result": "1.53 ± 0.15", "unit": "L/kg"}, {"measurement": "clearance", "setting": "[1]; male, CD-1, mouse, blood, iv", "result": 23.8, "unit": "mL/min/kg"}, {"measurement": "C0", "setting": "[1]; male, CD-1, mouse, blood, iv, C0, iv, CD-1 mice", "result": "24500 ± 7520", "unit": "ng/mL"}, {"measurement": "Cmax", "setting": "[1]; male, CD-1, mouse, blood, po", "result": 217, "unit": "ng/mL"}, {"measurement": "MRT inf", "setting": "[1]; male, CD-1, mouse, blood, po", "result": "2.65 ± 0.82", "unit": "h"}, {"measurement": "Tmax", "setting": "[1]; male, CD-1, mouse, blood, po", "result": "0.58 ± 0.38", "unit": "h"}, {"measurement": "bioavailability", "setting": "[1]; male, CD-1, mouse, blood, po", "result": "9.8 ± 3.1", "unit": "%"}, {"measurement": "CL", "setting": "[1]; po, CD-1 mice", "result": "14.6 ± 3.5", "unit": "L h^–1 kg^–1"}, {"measurement": "T1/2", "setting": "[1]; po, CD-1 mice", "result": "1.67 ± 0.04", "unit": "h"}, {"measurement": "Vss", "setting": "[1]; po, CD-1 mice", "result": "35.0 ± 7.9", "unit": "L/kg"}, {"measurement": "solubility", "setting": "[2]", "result": "31 ± 4", "unit": "µg/mL"}, {"measurement": "dose well tolerated", "setting": "[3]; single oral dose", "result": "≤ 1200", "unit": "mg/kg"}, {"measurement": "acute toxicity", "setting": "[3]; single oral dose up to 1200 mg/kg", "result": "no acute toxicity"}, {"measurement": "abnormal behaviors, water/food consumption and body weight", "setting": "[3]; single oral doses 600 or 1200 mg/kg, 2 weeks", "result": "no abnormal behaviors and significant changes of water/food consumption and body weight were observed"}, {"measurement": "mRNA expression of glucose 6-phosphatase", "setting": "[4]; [11]", "result": "inhibits the mRNA expression"}, {"measurement": "8-Br-cAMP/dexamethasone-induced expression of G-6-Pase", "setting": "[4]; HepG2 cells, 10 nM, in words", "result": "back to the basal level"}, {"measurement": "mRNA expression of phosphoenolpyruvate carboxykinase", "setting": "[5]; [11]", "result": "inhibits the mRNA expression"}, {"measurement": "8-Br-cAMP/dexamethasone-induced expression of PEPCK", "setting": "[5]; HepG2 cells, 10 nM, in words", "result": "back to the basal level"}, {"measurement": "microsomal CLint at 0.5 μM", "setting": "[6]", "result": 62, "unit": "µL/min/mg"}, {"measurement": "Clapp", "setting": "[6]", "result": 244.3, "unit": "mL min^–1 kg^–1"}, {"measurement": "Clh", "setting": "[6]", "result": 65.8, "unit": "mL min^–1 kg^–1"}, {"measurement": "Eh", "setting": "[6]", "result": 73.1, "unit": "%"}, {"measurement": "k", "setting": "[6]", "result": 0.03102}]}, {"compound": "C[C@@H](Nc1nc2c(cnn2C2CCCC2)c(=O)[nH]1)C(=O)Nc1ccc(F)cc1", "note": "[Compound 8r, (R)-2-((1-Cyclopentyl-4-oxo-4,5-dihydro-1H-pyrazolo[3,4-d]pyrimidin-6-yl)amino)-N-(4-fluorophenyl)propanamide]", "values": [{"measurement": "T1/2", "setting": "[7]; iv", "result": "1.01 ± 0.09", "unit": "h"}, {"measurement": "C0", "setting": "[7]; male, SD, rat, blood, iv", "result": "19100 ± 428", "unit": "ng/mL"}, {"measurement": "MRT inf", "setting": "[7]; male, SD, rat, blood, iv", "result": "0.59 ± 0.13", "unit": "h"}, {"measurement": "Vd", "setting": "[7]; male, SD, rat, blood, iv", "result": "2.58 ± 0.07", "unit": "L/kg"}, {"measurement": "clearance", "setting": "[7]; male, SD, rat, blood, iv", "result": 29.7, "unit": "mL/min/kg"}, {"measurement": "Cmax", "setting": "[7]; male, SD, rat, blood, po", "result": "135 ± 55", "unit": "ng/mL"}, {"measurement": "MRT inf", "setting": "[7]; male, SD, rat, blood, po", "result": "3.94 ± 1.11", "unit": "h"}, {"measurement": "Tmax", "setting": "[7]; male, SD, rat, blood, po", "result": "1 ± 0.87", "unit": "h"}, {"measurement": "bioavailability", "setting": "[7]; male, SD, rat, blood, po", "result": "18 ± 7", "unit": "%"}, {"measurement": "T1/2", "setting": "[7]; po", "result": "4.08 ± 1.00", "unit": "h"}]}, {"compound": "COc1ccc(NC(=O)[C@@H](C)Nc2nc3c(cnn3-c3ccccc3Cl)c(=O)[nH]2)cc1", "note": "[Compound 28r, (R)-2-((1-(2-Chlorophenyl)-4-hydroxy-1H-pyrazolo[3,4-d]pyrimidin-6-yl)amino)-N-(4-methoxyphenyl)propanamide]", "values": [{"measurement": "Ki", "setting": "[8]", "result": 5, "unit": "nM"}]}, {"compound": "COc1ccc(NC(=O)[C@H](C)Nc2nc3c(cnn3-c3ccccc3Cl)c(=O)[nH]2)cc1", "note": "[Compound 28s]", "values": [{"measurement": "IC50", "setting": "[9]", "result": "21 ± 5", "unit": "nM"}, {"measurement": "Ki", "setting": "[8]", "result": 16, "unit": "nM"}, {"measurement": "Cmax", "setting": "[10]", "result": 16, "unit": "ng/mL"}]}, {"compound": "C[C@]12CC[C@H]3[C@@H](CCC4=CC(=O)CC[C@@]43C)[C@@H]1CC[C@@H]2O", "note": "[testosterone]", "values": [{"measurement": "microsomal CLint at 0.5 μM", "setting": "[6]", "result": 692, "unit": "µL/min/mg"}, {"measurement": "Clapp", "setting": "[6]", "result": 2725.1, "unit": "mL min^–1 kg^–1"}, {"measurement": "Clh", "setting": "[6]", "result": 87.1, "unit": "mL min^–1 kg^–1"}, {"measurement": "Eh", "setting": "[6]", "result": 96.8, "unit": "%"}, {"measurement": "k", "setting": "[6]", "result": 0.346}]}, {"compound": "CC(=O)CC(c1ccccc1)c1c(O)c2ccccc2oc1=O", "note": "(stereo not drawn) [warfarin]", "values": [{"measurement": "Clapp", "setting": "[6]", "result": 30.9, "unit": "mL min^–1 kg^–1"}, {"measurement": "Clh", "setting": "[6]", "result": 23.0, "unit": "mL min^–1 kg^–1"}]}, {"compound": "insulin", "values": [{"measurement": "mRNA expression of G-6-Pase", "setting": "[4]; [12]", "result": "to the basal level"}, {"measurement": "mRNA expression of PEPCK", "setting": "[5]; [12]", "result": "to the basal level"}]}]}
